Data on one compound can be found in patent US12098386B2, “Use of germ cells for preparing a micro hair follicle” (L'OREAL, priority 2016, dated 2024).

Molecules are shown by their SMILES.

The assay deals with germ cells. Description: Culture-amplification of germ cells on 3T3 feeder layer in Green 7F medium with or without ROCK inhibitor. The class given is cell-based. An excerpt:
The germ cell region, called the bulge (FIG. 1), is extracted from the connective tissue sheath (FIG. 2) and then placed in a petri dish containing 3T3i cells (FIG. 3).
The hair follicles are extracted from a surgical residue of scalp. Said residue is first cut into 5 mm^2 portions and then sectioned using a scalpel between the dermis and the hypodermis.
The follicles are extracted using ophthalmic surgery forceps and are then sectioned just above the papilla with a scalpel. The bulb is then recovered. At this stage, the bulb comprises two compartments: the dermal compartment (dermal papilla and connective tissue sheath) and the matrix cells which form a cell mass.
The epithelial part is separated from the dermal part using perfusion needles. Only the epithelial part is cultured.
The MEM medium+10% FCS+7F (called Green 7F medium) has the following composition:
After microdissection, the hair follicles in the telogen phase are deposited in Petri dishes 60 mm in diameter, seeded beforehand with 1 million 3T3 cells, and covered with the complete Green 7F culture medium; a culture of germ cells at confluence is obtained.
The telogen hair with the non-dissociated germ cell clump are isolated and deposited on a 3T3 feeder layer (FIG. 3). After 3 d of culture, the cells begin to proliferate in the form of a colony around the germ clump (FIG. 4). The cells reach subconfluence in 7 days (FIG. 5). […]

Consider `C[C@@H](N)[C@H]1CC[C@H](C(=O)Nc2ccncc2)CC1` [Y27632], for which the “Differentiation of germ cells into marker-positive keratinocytes (K15, CD29, CD200)” value (germ cells cultured in 7F medium containing the rock inhibitor (FIG. 6)) was “keratinocytes that are positive for the K15, CD29 and CD200 markers”. The “Proliferation of the germ cells (reaching confluence)” value (green 7F medium, Y27632 at 10 μM, in the same medium without the rock inhibitor the cells do not proliferate (FIG. 7a/7b)) is “very rapidly reaching confluence”.
